21 molecules from article PMC5799093, “Proceedings of Réanimation 2018, the French Intensive Care Society International Congress” (Annals of Intensive Care, 2018) can be followed below.

Usually mortality stands for the percentage killed.

Where two headings read alike, the source gives them in different places.

Data set [1] is described as follows: Acute amitriptylin and clomipramine poisonings in the ICU, clinical features and pharmacokinetics. Conditions: median; AMI [0.4 + 1.4], dose 1.5 g; CLO [0.5 + 1.4], dose 3.0 g.
The nature of data set [2]: Delayed neuropsychiatric sequelae after carbon monoxide poisoning in outpatients.
The test system of data set [3] is Extended spectrum betalactamase producing Enterobacteriaceae. The data set can be described thus: Antibiotic resistance of ESBL producing Enterobacteriaceae (P-147). Conditions: isolates 2015 and 2016. Format: cell-based.
Data set [4] in a line: Residual serum concentrations of piperacillin and amoxicillin and neurological disorders (HPLC MS). Format: in vivo, critically ill patients. As to the method: Patients and methods: This study was carried out retrospectively during the period 01.01.2015 to 08.02.2017, in patients hospitalized in the medical ICU-CHU Rouen with PTM.
Data set [5] can be described thus: Beta-lactam plasma concentrations in children with severe sepsis or septic shock (HPLC). Conditions: current standard dosing.
The test system of the next data set is Candida isolates. Briefly: Antifungal susceptibility of Candida isolates, Fungitest broth dilution. Format: cell-based, Candida spp. As to the method: Patients and methods: Our study is a retrospective review of 17 severely burned patients admitted to the burn unit of the Ben Arous Traumatology and Burns Center with one or more positive culture sites for Candida, during the 16-month period from May 2016 through August 2017. A total of 42 isolates were thus obtained. […] Since echinocandin and anidulafungine were recently introduced in Tunisia, the susceptibility to these antifungal classes was tested for only one patient from our cohort.
(Broth dilution looks for growth in wells or tubes with falling amounts of substance.)

Data set [6] has as its system carbapenemase-producing Enterobacteriaceae. The data set can be described thus: Antibiotic susceptibility of Enterobacteriaceae with decreased susceptibility to carbapenems. Format: cell-based. The note with it: for resistant rate: CA-SFM 2015.
Data set [7] is described as follows: Cyproheptadine poisoning, retrospective series (P-180). It is filed as in vivo, human. The method, then:
Patients and methods: Retrospective study was performed between January 2008 and APRIL 2017. Epidemiological data clinical data and outcome were reviewed.

Data set [8] relates to cardiogenic shock patients. The data set can be described thus: OPTIMA CC double-blind randomized trial, epinephrine vs norepinephrine in cardiogenic shock after myocardial infarction. Format: in vivo. From the text:
Patients and methods: Multicenter, double-blind, randomized trial in 8 french ICU. Cardiogenic shock patients due to myocardial infarction treated by PCI were randomized to receive epinephrine or norepinephrine to maintain MAP at 70 mmHg. Dobutamine was introduced at the physician discretion according to a combination of parameters—echocardiographic parameters, cardiac index, lactate clearance, SVO2 and Swan-Ganz derived parameters.

The subject of data set [9] is patients with severe alcohol withdrawal syndrome. The data set can be described thus: Continuous-infusion midazolam for severe alcohol withdrawal syndrome, complications. Format: in vivo. An excerpt: Patients and methods: We retrospectively reviewed the medical records of all patients hospitalized for alcohol withdrawal syndrome between 2006 and 2016. Only those who received continous-infusion of BZD, associated with close clinical monitoring and the evaluation of RASS and Cushman scores, without systematic recourse to mechanical ventilation, were included.

A short description of data set [10]: Acute olanzapine poisoning in ICU (P-182). Format: in vivo, human. As to the method: Patients and methods: Retrospective analysis of all cases of olanzapine intoxication admitted in 12-bed teaching ICU between January 2013 and Decembre 2017. Inclusion criteria were patient age ≥ 14 year, acute olanzapine intoxication, the intoxication severity was assessed by the Poisoning Severity Score (PSS) of the European Association of Poison Centres and Clinical Toxicologists. The evaluation of electrocardiograms was performed in the first day of hospitalization. The durations of QRS and QTc was measured and arrhythmias and conduction disorders was identified.

For another data set, the system named is Acinetobacter baumannii. It is filed as cell-based. The method, then:
Patients and methods: From January 2012 to December 2016, a total of 2,182 non repetitive strains were isolated from blood cultures. Incubation of blood culture vials and the detection of bacterial growth were performed by the BACTEC system. All Isolated organisms were identified on the basis of standard microbiological techniques. Antibiotic susceptibility testing was carried out by the agar disk diffusion method, and susceptibility results were interpreted using clinical breakpoints according to CA-SFM 2013 and 2015 guidelines. Data were analyzed using the SIR-system. Minimum inhibitory concentrations of colistin, imipenem and vancomycin were determined using the Etest® method (bioMérieux).

A further data set has as its system Pseudomonas aeruginosa. The data set can be described thus: Disk diffusion susceptibility of P. aeruginosa isolated from burned patients (P-48). It is filed as cell-based. Conditions: 485 strains from burned patients 2012-2015, disk diffusion, FSM breakpoints. Background: In agar diffusion tests the substance spreads into inoculated agar from a disc or well.
The subject of the next data set is anti-Xa activity. Briefly: Pharmacokinetics of unfractionated heparin (anti-Xa activity) in children under ECMO (P-171). Format: in vivo, human (children). The method, then: Patients and methods: This is a single center retrospective study from March 2015 to September 2016. Were included children (< 18 years old age) who were under ECMO for refractory hemodynamic failure related to (i) myocarditis or (ii) septic shock. Anti-Xa activity time-courses were analyzed using a non linear mixed effects approach with Monolix version 2016R.

As for `CN(C)CCCN1c2ccccc2CCc2ccc(Cl)cc21` [CLO, clomipramine], the plasma concentration in data set [1] stood at 0.7 mg/L.

With `[C-]#[O+]` [CO, Carbon monoxide], the “mean serum HbCO level on admission” value in data set [2] (83 patients) was determined as 15 ± 8%. In addition, in [2] (among identified disorders), the persistent headaches was determined as 39%. Moreover, in data set [2] (in vivo), the anxiety-depressive disorders is reported as 39%, the cognitive disorders is 22%, the irritability was 22% and the “mean onset time of symptoms” value worked out at 5 ± 3 months. For the same molecule, the “prevalence of patients with delayed neuropsychiatric sequelae” value in data set [2] (telephone contact at 16 ± 9 months) stood at 26%.

As to `CNC(C)C1CCC(N)C(OC2C(N)CC(N)C(OC3OCC(C)(O)C(NC)C3O)C2O)O1` (centres unmarked) [Gentamicin], in data set [3], the rate of resistance amounted to 50%.

As to `CC1(C)S[C@@H]2[C@H](NC(=O)[C@H](N)c3ccc(O)cc3)C(=O)N2[C@H]1C(=O)O` [amoxicillin], the “residual concentration associated with occurrence of neurological disorders” value in data set [4] (80% specificity and sensitivity) was “greater than 40 mg L^−1”. In data set [4] (HPLC MS), the “residual serum concentration, patients with neurological disorders or wakefulness delays” value was 157 ± 72 mg L^−1 and the “residual serum concentration, patients without neurological disorders” value was 35.8 ± 13.0 mg L^−1. Moreover, the “patients with insufficient plasma concentration” value in data set [5] is reported as 86%.

Regarding `C[C@@H]1[C@H](O)[C@@H](C)/C=C/C=C/C=C/C=C/C=C/C=C/C=C/[C@H](O[C@@H]2O[C@H](C)[C@@H](O)[C@H](N)[C@@H]2O)C[C@@H]2O[C@](O)(C[C@@H](O)C[C@@H](O)[C@H](O)CC[C@@H](O)C[C@@H](O)CC(=O)O[C@H]1C)C[C@H](O)[C@H]2C(=O)O` [amphotericin B], the resistant strains entry with Candida isolates was “Only one strain was resistant”.

In turn, `C[C@H]1[C@H](NC(=O)/C(=N\OC(C)(C)C(=O)O)c2csc(N)n2)C(=O)N1S(=O)(=O)O` [aztreonam] registered a resistant rate in [6] of 67%.

Consider `Cc1nnc(SCC2=C(C(=O)O)N3C(=O)[C@@H](NC(=O)Cn4cnnn4)[C@H]3SC2)s1` [cefazoline, cefazolin], for which, in [5], the “patients with insufficient plasma concentration” value turned out to be 25%.

Regarding `CO/N=C(\C(=O)N[C@@H]1C(=O)N2C(C(=O)O)=C(COC(C)=O)CS[C@H]12)c1csc(N)n1` [cefotaxime], the resistant rate in data set [6] was 97%.

`CN1CCC(=C2c3ccccc3C=Cc3ccccc32)CC1` [cyproheptadine]: in data set [7] (56 patients), the delirium came out at 20%, the outcome is “favorable in all cases” and the “patients with peripheral anti-cholinergic symptoms” value was “Forty two”. For the same molecule, the “median delay of symptoms onset” value in [7] (56 patients, mean ingested dose 94 mg, range [1–14]) is recorded as 3 h. In addition, in [7] (in vivo), the “correlation between coma and assumed ingested dose” value is recorded as “no correlation”. Also, the “mean duration of mechanical ventilation” value in data set [7] (six ventilated patients, ± 4) was 17 h.

Take `CNC[C@H](O)c1ccc(O)c(O)c1` [epinephrine]: the “arterial pH and lactate” value in data set [8] (H2 to H24) is recorded as “lactic acidosis from H2 to H24”. The “cardiac index and cardiac power index” value in [8] (epinephrine vs norepinephrine group) is listed as “increased significantly more”. In addition, in [8] (in vivo), the ECMO use was 11%, the “cardiac double product (surrogate of myocardial oxygen consumption)” value is recorded as “increased”, the heart rate evolution entry is “increased significantly” and the incidence of arrhythmia came out at 41%. Besides, the mortality in [8] (in vivo) is on record as 52%. Further, the “incidence of refractory shock” value in data set [8] (titrated to MAP 70 mmHg, epinephrine n = 27, norepinephrine n = 30) is reported as 37%.

Turning to `OC(Cn1cncn1)(Cn1cncn1)c1ccc(F)cc1F` [fluconazole], in the data set with Candida isolates, the intermediate isolates was found to be 11.1%, the resistant isolates turned out to be 11.1% and the susceptible isolates came to 77.8%.

For the molecule `C[C@@H]1O[C@@H]1P(=O)(O)O` [fosfomycin], in [6] (colistin excepting with Proteus), the susceptibility is recorded as 65%.

In turn, `CCC(C)n1ncn(-c2ccc(N3CCN(c4ccc(OCC5COC(Cn6cncn6)(c6ccc(Cl)cc6Cl)O5)cc4)CC3)cc2)c1=O` (centres unmarked) [itraconazole] gave an intermediate isolates in the data set with Candida isolates of 81.5%.

Consider `CC(=O)N1CCN(c2ccc(OCC3COC(Cn4ccnc4)(c4ccc(Cl)cc4Cl)O3)cc2)CC1` (centres unmarked) [ketoconazole], for which the intermediate isolates in the data set with Candida isolates is 40.7%.

Regarding `C[C@@H](O)[C@H]1C(=O)N2C(C(=O)O)=C(S[C@@H]3CN[C@H](C(=O)N(C)C)C3)[C@H](C)[C@H]12` [meropenem], the “patients with insufficient plasma concentration” value in data set [5] amounted to 50%.

As to `Clc1ccc(COC(Cn2ccnc2)c2ccc(Cl)cc2Cl)c(Cl)c1` (centres unmarked) [miconazole], the intermediate isolates in the data set with Candida isolates worked out at 33.3%.

With `Cc1ncc2n1-c1ccc(Cl)cc1C(c1ccccc1F)=NC2` [midazolam], in data set [9] (IC 95% (2.11–168.15)), the “OR of intubation and or pneumonia for maximum perfusion velocity > 8 mg h” value came out at 18.83. Moreover, the “patients developing pneumonia and or requiring intubation” value in data set [9] (continuous infusion, median maximum 8 mg h, n = 104) came to 12%. Also, in [9] (n = 104), the “cardiac arrest and death” value was “No cardiac arrest and death was observed”; the patients with seizures was 8%.

Take `Cc1cc2c(s1)Nc1ccccc1N=C2N1CCN(C)CC1` [olanzapine, Olanzapine]: the “mean duration of prolonged QTc” value in [10] (5 cases) is reported as 460 ± 28 ms. Further, in data set [10] (8 patients, 3 cases), the “Poisoning Severity Score moderate, monointoxication” value amounted to 37.5%. In addition, in data set [10] (8 patients, 4 cases), the “Poisoning Severity Score severe, monointoxication” value was 50%. In addition, the “Poisoning Severity Score fatal” value in data set [10] (24 patients) is reported as 1 case. Besides, the “Poisoning Severity Score moderate” value in data set [10] (24 patients, 9 cases) was determined as 37.5%. Further, the “Poisoning Severity Score severe” value in [10] (24 patients, 14 cases) was determined as 58%. Besides, in data set [10] (n = 8 of 24), the agitation is listed as 33%. In [10] (n = 15 of 24), this molecule came in with a miosis of 62% and a tachycardia of 62%. Besides, in data set [10] (of 24), the “Coma Glosgow Scale < 12” value was 14 cases, the mechanical ventilation required was determined as 58% and the “prolonged QTc” value is on record as 5 cases. In addition, for the setting “human, in vivo”, the “QRS enlargement on the ECG” value is recorded as 10%, the QT widening was found to be 23%, the abolished tendon reflexes was found to be 31% and the increased tendon reflexes was found to be 28%. Moreover, for the setting “human, in vivo”, the mydriasis came to 10%, the myorelaxation is listed as 68%, the myosis is listed as 39% and the seizures result is given as “No seizure was observed”. Moreover, the “plasma concentration on admission” value (median [0.185 + 0.820], ingested dose 200 mg [110 + 333], n = 71) worked out at 0.310 mg/L. The Glasgow coma score (median [percentiles 25 + 75], multidrug ingestion) is 4 [3 + 8]. Under “non-compartmental analysis”, the elimination in overdose entry is on record as “prolonged olanzapine elimination at elevated concentrations”. In addition, the “died in the ICU” value (patients with pre-hospital cardiac arrest) is on record as 4%.

Take `CO[C@H]1/C=C/O[C@@]2(C)Oc3c(C)c(O)c4c(O)c(c(/C=N/N5CCN(C)CC5)c(O)c4c3C2=O)NC(=O)/C(C)=C\C=C\[C@H](C)[C@H](O)[C@@H](C)[C@@H](O)[C@@H](C)[C@H](OC(C)=O)[C@@H]1C` [rifampicin]: the resistance rate in the data set on Acinetobacter baumannii (by 2016) is recorded as 67%; in the data set with Acinetobacter baumannii (in 2014) it was 15%.

Turning to `CC1(C)S[C@@H]2[C@H](NC(=O)[C@H](C(=O)O)c3ccsc3)C(=O)N2[C@H]1C(=O)O` [ticarcillin], the strains resistant with Pseudomonas aeruginosa was 69%.

With unfractionated heparin, in the data set on anti-Xa activity (12 children under ECMO, one-compartment, scaled to 70 kg), the “typical clearance (CLTYP)” value was 2.42 L/h. Also, the “typical volume of distribution (VTYP)” value with anti-Xa activity (12 children under ECMO, scaled to 70 kg) is listed as 5.1 L. The “samples with anti-Xa activity > 0.6 IU mL” value in the data set on anti-Xa activity (37 of 214 samples) came to 17%. For the same molecule, in the data set with anti-Xa activity (81 of 214 samples), the “samples with anti-Xa activity < 0.4 IU mL” value came to 38%. Also, the “samples with anti-Xa activity in the target (0.4 to 0.6 IU mL)” value in the data set with anti-Xa activity (96 of 214 samples, 12 children) is on record as 45%. For the same molecule, in the data set on anti-Xa activity (of 12), the bleeding is recorded as 2 children and the thrombosis is recorded as 4 children.
